In patent US20260262643A1, “HERBICIDAL BENZOXAZINES” (FMC CORPORATION, priority 2022, published 2026):

Key:
[1] = system: goosegrass; test: Test A preemergence; type: in vivo, Eleusine indica; conditions: Eleusine indica, pre-emergence, 240 h, read-out: Plant response rating, Goosegrass
Method in brief: (§1)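 Plants were grown in loam and sand and treated preemergence or postemergence (one- to two-leaf stage, 2–10 cm) with compound in solvent plus surfactant. Response was scored against untreated controls after 10 greenhouse days, where 0 means no effect and 100 complete control.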

[2] = system: wheat; test: Test A postemergence; type: in vivo, Triticum aestivum; conditions: Triticum aestivum, post-emergence, 240 h, read-out: Plant response rating, Wheat
Method in brief: as §1

[3] = system: blackgrass; test: Test A preemergence; type: in vivo, Alopecurus myosuroides; conditions: Alopecurus myosuroides, pre-emergence, 240 h, read-out: Plant response rating, Blackgrass
Method in brief: as §1

[4] = system: ragweed; test: Test A postemergence; type: in vivo, Ambrosia artemisiifolia; conditions: Ambrosia artemisiifolia, post-emergence, 240 h, read-out: Plant response rating, Ragweed
Method in brief: as §1

[5] = system: ryegrass, Italian; test: Test A postemergence; type: in vivo, Lolium multiflorum; conditions: Lolium multiflorum, post-emergence, 240 h, read-out: Plant response rating, Ryegrass, Italian
Method in brief: as §1

[6] = system: foxtail, giant; test: Test A postemergence; type: in vivo, Setaria faberi; conditions: Setaria faberi, post-emergence, 240 h, read-out: Plant response rating, Foxtail, Giant
Method in brief: as §1

[7] = system: oat, wild; test: Test A postemergence; type: in vivo, Avena fatua; conditions: Avena fatua, post-emergence, 240 h, read-out: Plant response rating, Oat, Wild
Method in brief: as §1

[8] = system: pigweed, palmer; test: Test A postemergence; type: in vivo, Amaranthus palmeri; conditions: Amaranthus palmeri, post-emergence, 240 h, read-out: Plant response rating, Pigweed, Palmer
Method in brief: as §1

[9] = system: goosegrass; test: Test A postemergence; type: in vivo, Eleusine indica; conditions: Eleusine indica, post-emergence, 240 h, read-out: Plant response rating, Goosegrass
Method in brief: as §1

[10] = system: blackgrass; test: Test A postemergence; type: in vivo, Alopecurus myosuroides; conditions: Alopecurus myosuroides, post-emergence, 240 h, read-out: Plant response rating, Blackgrass
Method in brief: as §1

[11] = system: soybean; test: Test A preemergence; type: in vivo, Glycine max; conditions: Glycine max, pre-emergence, 240 h, read-out: Plant response rating, Soybean
Method in brief: as §1

[12] = system: foxtail, giant; test: Test A preemergence; type: in vivo, Setaria faberi; conditions: Setaria faberi, pre-emergence, 240 h, read-out: Plant response rating, Foxtail, Giant
Method in brief: as §1

[13] = system: galium; test: Test A postemergence; type: in vivo, Galium aparine; conditions: Galium, post-emergence, 240 h, read-out: Plant response rating, Galium
Method in brief: as §1

[14] = system: sedge, umbrella; test: Test B flooded paddy test; type: in vivo, Cyperus difformis; conditions: Cyperus difformis, 312 h; 250 g ai/ha, Flood, 13 days, 0 to 100 scale (0 no effect, 100 complete control); read-out: Plant response rating, Sedge, Umbrella
Method in brief: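 2-leaf stage; pots flooded 3 cm over soil; compound dosed into paddy water; depth kept constant. Greenhouse, 13 d. Visual rating vs controls, 0 (no effect)–100 (complete control). Dash = no result.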

[15] = 125 g ai/ha, visual injury after 10 days, 0 to 100 scale, 0 is no effect, 100 is complete control
[16] = 500 g ai/ha, 0 to 100 scale (0 no effect, 100 complete control), 10 days
[17] = 125 g ai/ha, postemergence, 10 days, visual injury, 0 to 100 scale (0 no effect, 100 complete control)
[18] = 500 g ai/ha, Postemergence, 0 to 100 scale

Structure (SMILES): Cc1cccc2c1O[C@@H](C)CN2C(=O)c1cccc(-n2cnc(Br)n2)c1 [Compound 61, [3-(3-Bromo-1H-1,2,4-triazol-1-yl)phenyl][(2S)-2,3-dihydro-2,8-dimethyl-4H-1,4-benzoxazin-4-yl]methanone]
- pest or weed control at 125 g/ha [1, 15]: 90%
- pest or weed control at 500 g/ha [1, 16]: 90%
- plant injury at 125 g/ha [2, 17]: 10%
- plant injury at 500 g/ha [2, 18]: 20%
- pest or weed control at 125 g/ha [3, 15]: 50%
- pest or weed control at 500 g/ha [3, 16]: 70%
- pest or weed control at 125 g/ha [4, 17]: 30%
- pest or weed control at 500 g/ha [4, 18]: 40%
- pest or weed control at 125 g/ha [5, 17]: 40%
- pest or weed control at 500 g/ha [5, 18]: 40%
- pest or weed control at 125 g/ha [6, 17]: 60%
- pest or weed control at 500 g/ha [6, 18]: 80%
- pest or weed control at 125 g/ha [7, 17]: 10%
- pest or weed control at 500 g/ha [7, 18]: 20%
- pest or weed control at 125 g/ha [8, 17]: 40%
- pest or weed control at 500 g/ha [8, 18]: 50%
- pest or weed control at 125 g/ha [9, 17]: 10%
- pest or weed control at 500 g/ha [9, 18]: 50%
- pest or weed control at 125 g/ha [10, 17]: 20%
- pest or weed control at 500 g/ha [10, 18]: 40%
- plant injury at 125 g/ha [11, 15]: 0%
- plant injury at 500 g/ha [11, 16]: 30%
- pest or weed control at 125 g/ha [12, 15]: 90%
- pest or weed control at 500 g/ha [12, 16]: 90%
- pest or weed control at 125 g/ha [13, 17]: 70%
- pest or weed control at 500 g/ha [13, 18]: 100%
- pest or weed control at 250 g/ha [14]: 45%
